This assay concerns the target Adenosine deaminase (Bos taurus) (UniProt P56658). Nature of the assay: Michaelis constant was determined against mammalian Adenosine deaminase; NS = not a substrate of adenosine deaminase.

Adenosine deaminase (Bos taurus), sequence (P56658 whole entry, looked up): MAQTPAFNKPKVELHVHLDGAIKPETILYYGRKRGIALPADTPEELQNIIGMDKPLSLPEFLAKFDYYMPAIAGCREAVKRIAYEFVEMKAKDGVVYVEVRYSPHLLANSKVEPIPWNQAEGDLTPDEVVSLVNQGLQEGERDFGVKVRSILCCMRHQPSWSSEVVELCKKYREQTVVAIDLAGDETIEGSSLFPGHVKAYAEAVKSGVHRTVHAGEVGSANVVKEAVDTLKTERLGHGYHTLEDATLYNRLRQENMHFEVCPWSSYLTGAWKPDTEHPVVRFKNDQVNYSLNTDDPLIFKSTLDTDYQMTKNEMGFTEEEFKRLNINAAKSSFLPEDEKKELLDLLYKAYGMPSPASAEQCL

For the compound `Nc1ncnc2c1ncn2[C@@H]1O[C@H](CO)C=C1F`, the NS entry was “Not a substrate”.

These data come from ChEMBL document CHEMBL1135890, “Structure-activity relationships of 2'-fluoro-2',3'-unsaturated D-nucleosides as anti-HIV-1 agents” (J Med Chem, 2002).
